Measured values published in patent publication US9326511B2, “Methods of inhibiting microbial biofilms” (priority 2008, dated 2016).
Marks after values point to notes of the source that are not given here.

How the values were obtained:
[1] = system: normal human epidermal keratinocytes (NHEK); assay: Toxicity against human skin cells, MTT-assay; assay type: cell-based; settings: 5 min, 1 h, 4 h incubation, 0.01-10 μM, then 24 h in the dark
Description: (§1) NHEK were incubated with different concentrations of Compound 10 for 5 min, 1 h and 4 h (0 μM, 0.01 μM, 0.1 μM, 1.0 μM, 10 μM). Cells were then incubated for 24 h in the dark. Toxicity was tested by standard MTT-assay. Cell viability was normalised to one, which means, the values of control cells were normalised to one. Red dotted line: 5 min incubation; black dotted: 1 h incubation; blue dotted: 4 h incubation only; (n=3, mean±SD).
(§2) Test compounds were screened for toxicity against cultured human skin cells using normal human epidermal keratinocytes (NHEK) and normal human dermal fibroblasts (NHDF), purchased from CellSystems Biotechnologie GmbH, Germany.
(§3) The NHEK and NHDF cells were used between passages 3 and 10. The cells were seeded with 7.5 and/or 15×10^4 cells/well (microtitre plate) and were allowed to attach overnight in an incubator (37° C., 5% CO2). After incubation with different concentrations of the selected photosensitisers for various times, the cells were incubated for 24 hours in the dark.
(§4) Toxicity was tested by standard MTT-assay (Mossman et al., 1983 J. Immunological Methods 65: 55-63). MTT is an indicator of metabolically active cells. Dependent on enzyme activity in mitochondria a colour reaction can be visualised, which can be measured by ELISA reader (540 nm). […]

[2] = system: Staphylococcus aureus BAA-44 (multi-drug resistant MRSA); assay: MIC and MBC of Compound 10 in the absence of light (NCCLS-based broth dilution); assay type: cell-based; settings: S. aureus BAA-44, subculture on nutrient agar, further 24 hours
Description: The minimum inhibitory concentration (MIC) for an antimicrobial agent against a specific microorganism is defined as the minimum concentration of an antibacterial agent where no apparent visible growth of the organism is observed (FDA definition of Minimum Inhibitory Concentration). MIC's are typically determined using concentrations derived traditionally from serial twofold dilutions (National Committee for Clinical Laboratory Standards (NCCLS) Handbook M7-A5: “Methods for Dilution Antimicrobial Susceptibility Tests for Bacteria that Grow Aerobically; Approved Standard—5th Edition” Volume 20 Number 2. January 2000). The MIC for Compound 10 in the absence of light was investigated, using a protocol based on the MIC protocol produced by the NCCLS (National Committee for Clinical Laboratory Standards (NCCLS) Handbook M7-A5, supra).
Staphylococcus aureus BAA-44, a multi-drug resistant Methicillin Resistant Staphylococcus aureus (MRSA) strain obtained from the ATCC catalogue, was used in this study. The following concentrations of Compound 10 were investigated: 0.764; 0.382; 0.191; 0.0955; 0.0478; 0.0239, 0.0119, 0.00597, 0.00298, 0.00149, 0.00075 & 0.00037 μg/mL. Stock solutions were made up in distilled water and serial dilutions undertaken of this to produce the required concentrations immediately prior to use […]

[3] = Acute dermal toxicity test (OECD 402); assay type: in vivo; settings: 3.2 mM in a topical formulation
Description: Compound 10 was tested at 3.2 mM in a topical formulation in a standard acute dermal toxicity test to determine if any clinical or histological toxicity for the compound could be detected.
The acute toxicity protocol was based on OECD Guidelines for the testing of chemicals/Section 4—Health Effects Test Number 402: Acute Dermal Toxicity.

[4] = system: range of S. aureus strains including MSSA, healthcare-associated and community-associated MRSA; settings: previously shown (Love et al. 2008); cited from earlier work
[5] = system: normal human dermal fibroblasts (NHDF); assay: Toxicity against human skin cells, MTT-assay; assay type: cell-based; settings: 5 min, 1 h, 4 h incubation, 0.01-10 μM, then 24 h in the dark
Description: as §1, with “NHDF” for “NHEK”, “Grey” for “Red”, “black line:” for “blue dotted:”, “incubation;” for “incubation only;”
as §2, §3, §4

Enterococcus faecium = assay: MIC (IsoSensitest broth) and MBC (subculture onto Columbia blood agar), reference strains and clinical isolates; assay type: cell-based; settings: dark, 24 hours
Description: The Minimum Inhibitory Concentrations (MIC's) for Compound 10, over a range of reference strains and clinical isolates, were determined using IsoSensitest® broth and Minimum Bactericidal concentrations (MBC's) determined by subculture onto Columbia blood agar.
• 1. A 5 mg/ml stock solution of Compound 10 was made up in water • 2. A series of dilutions were undertaken to produce a range of concentrations between 32-0.001 mg/L • 3. The test microorganisms were grown up overnight in IsoSensitest® broth • 4. The cultures were then diluted with fresh broth to a final concentration of 10^4 organisms/ml and placed on a shaker for 90 minutes at 37° C. • 5. 90 μl of the broth culture containing the microorganisms were transferred to each of 12 wells in a row in a microtitre tray and repeated in a control tray—four organisms per tray. • 6. 90 μL of the appropriate Compound 10 dilution was then added to each well containing organisms to give a final dilution series from 16 mg/L to 0.0005 mg/L • 7. The solutions were mixed well and incubated in the dark for 24 hours • 8. […] The MBC values were recorded after overnight incubation of the subcultures. • 10. Controls of uninoculated broth and broth plus inoculum were undertaken for each organism in each tray Results

## C[N+](C)(C)CCCOc1ccc(-c2c3nc(cc4ccc([nH]4)c(-c4ccc(OCCC[N+](C)(C)C)cc4)c4nc(cc5ccc2[nH]5)C=C4)C=C3)cc1.[Cl-].[Cl-] [Compound 10, 5,15-bis-[4-(3-Trimethylammonio-propyloxy)-phenyl]-porphyrin dichloride]
[1]
  Innate toxicity (cell viability, MTT): does not demonstrate an innate toxicity
[2]
  MBC: 0.382* μg/mL
[3]
  Acute dermal toxicity (clinical and histological): does not result in any acute toxic effect
[4]
  MBC50: 1 µg/mL
  MIC50: 1 µg/mL
[5]
  Innate toxicity (cell viability, MTT): does not demonstrate an innate toxicity
Enterococcus faecium; strain E5 (clinical isolate)
  Cpd 10 MIC: 0.5 µg/mL
Enterococcus faecium; strain E19 (clinical isolate)
  Cpd 10 MIC: 0.5 µg/mL
Enterococcus faecium; strain E44 (clinical isolate)
  Cpd 10 MIC: 0.5 µg/mL
